Key:
[1] = molecular target: B2 bradykinin receptor (Homo sapiens) (UniProt P30411); assay: Displacement of [3H]bradykinin from human recombinant B2 receptor at 10 uM measured after 60 mins by scintillation counter method relative to control
[2] = molecular target: D(1A) dopamine receptor (Homo sapiens) (UniProt P21728); assay: Displacement of [3H]SCH23390 from human recombinant D1 receptor at 10 uM measured after 60 mins by scintillation counter method relative to control
[3] = molecular target: C-C chemokine receptor type 1 (Homo sapiens) (UniProt P32246); assay: Displacement of [125I]MIP1-alpha from human recombinant CCR1 receptor at 10 uM measured after 120 mins by scintillation counter method relative to control
[4] = molecular target: GABA-A receptor; anion channel (Rattus norvegicus) (UniProt O09028+P15431+P18506+P18508+P19969+P20236+P23574+P23576+P28471+P28473+P30191+P62813+P63079+P63138+Q91ZM7+Q9ES14); assay: Displacement of [3H]flunitrazepam from rat GABAA ion channel at 10 uM measured after 120 mins by scintillation counter method relative to control; assay type: protein-complex assay
Rattus norvegicus = species on record: Rattus norvegicus; assay: Displacement of [3H]flunitrazepam from rat GABAA Central-type benzodiazepine receptor at 10 uM measured after 120 mins by scintillation counter method relative to control
[5] = molecular target: Neuropeptide Y receptor type 1 (Homo sapiens) (UniProt P25929); assay: Displacement of [125I] peptide YY from human neuropeptide Y1 receptor at 10 uM measured after 120 mins by scintillation counter method relative to control
Sequence of Neuropeptide Y receptor type 1 (Homo sapiens) (P25929 whole entry): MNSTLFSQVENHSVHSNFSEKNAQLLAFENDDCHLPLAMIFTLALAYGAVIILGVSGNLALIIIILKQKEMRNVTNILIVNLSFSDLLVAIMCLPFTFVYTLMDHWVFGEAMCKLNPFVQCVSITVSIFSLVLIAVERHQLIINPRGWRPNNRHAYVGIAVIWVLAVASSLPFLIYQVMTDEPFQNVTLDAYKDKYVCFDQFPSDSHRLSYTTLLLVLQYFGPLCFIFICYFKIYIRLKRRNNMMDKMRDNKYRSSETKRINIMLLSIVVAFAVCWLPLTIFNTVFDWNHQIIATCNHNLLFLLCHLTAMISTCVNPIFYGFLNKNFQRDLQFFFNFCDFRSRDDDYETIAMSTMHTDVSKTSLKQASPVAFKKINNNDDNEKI

[6] = molecular target: Neuromedin-K receptor (Homo sapiens) (UniProt P29371); assay: Displacement of [3H] HSR 142801 from human recombinant neurokinin beta receptor at 10 uM measured after 120 mins by scintillation counter method
[7] = molecular target: T1, 5-hydroxytryptamine receptor 1A (Homo sapiens, UniProt P08908); assay: Displacement of [3H]OH-DPAT from human recombinant 5-HT1A receptor measured after 60 mins by scintillation counter method
T1 sequence (P08908 whole entry): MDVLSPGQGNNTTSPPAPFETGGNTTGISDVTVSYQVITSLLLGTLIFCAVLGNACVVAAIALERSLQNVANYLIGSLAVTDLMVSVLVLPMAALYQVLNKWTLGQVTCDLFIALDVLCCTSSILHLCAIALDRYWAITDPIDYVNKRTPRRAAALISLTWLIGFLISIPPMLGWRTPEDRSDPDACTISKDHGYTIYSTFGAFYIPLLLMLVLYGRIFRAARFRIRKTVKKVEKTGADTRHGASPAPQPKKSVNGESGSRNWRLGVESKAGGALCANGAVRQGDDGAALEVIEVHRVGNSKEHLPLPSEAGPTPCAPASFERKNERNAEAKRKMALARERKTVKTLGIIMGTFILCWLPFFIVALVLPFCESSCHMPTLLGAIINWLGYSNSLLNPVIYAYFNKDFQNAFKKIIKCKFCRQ

[8] = molecular target: 5-hydroxytryptamine receptor 1A (Homo sapiens) (UniProt P08908); assay: Displacement of [3H]-OH-DPAT from human recombinant 5-HT1A receptor at 10 uM measured after 60 mins by scintillation counter method relative to control
[9] = molecular target: Histamine H1 receptor (Homo sapiens) (UniProt P35367); assay: Displacement of [3H]pyrilamine from human recombinant H1 receptor at 10 uM measured after 60 mins by scintillation counter method relative to control
Sequence of Histamine H1 receptor (Homo sapiens) (P35367 whole entry): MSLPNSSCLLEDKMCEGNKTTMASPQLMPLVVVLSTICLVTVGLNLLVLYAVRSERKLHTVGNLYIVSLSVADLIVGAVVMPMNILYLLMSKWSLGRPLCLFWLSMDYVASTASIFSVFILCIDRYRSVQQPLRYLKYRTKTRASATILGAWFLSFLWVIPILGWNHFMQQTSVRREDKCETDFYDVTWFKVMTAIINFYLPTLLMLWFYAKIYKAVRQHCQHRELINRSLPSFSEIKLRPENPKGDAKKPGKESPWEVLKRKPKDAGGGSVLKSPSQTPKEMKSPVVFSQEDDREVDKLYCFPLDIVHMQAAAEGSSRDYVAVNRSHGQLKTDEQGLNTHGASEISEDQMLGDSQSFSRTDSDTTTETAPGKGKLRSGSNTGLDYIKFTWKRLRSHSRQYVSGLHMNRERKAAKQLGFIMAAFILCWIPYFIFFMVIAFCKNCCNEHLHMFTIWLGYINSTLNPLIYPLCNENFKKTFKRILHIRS

[10] = molecular target: Sodium-dependent dopamine transporter (Homo sapiens) (UniProt Q01959); assay: Displacement of [3H] BTCP from human recombinant dopamine […] at 10 uM measured after 120 mins by scintillation counter method relative to control
[11] = molecular target: Delta-type opioid receptor (Homo sapiens) (UniProt P41143); assay: Displacement of [3H] DADLE from human delta opioid receptor at 10 uM measured after 60 mins by scintillation counter method relative to control
Sequence of Delta-type opioid receptor (Homo sapiens) (P41143 whole entry): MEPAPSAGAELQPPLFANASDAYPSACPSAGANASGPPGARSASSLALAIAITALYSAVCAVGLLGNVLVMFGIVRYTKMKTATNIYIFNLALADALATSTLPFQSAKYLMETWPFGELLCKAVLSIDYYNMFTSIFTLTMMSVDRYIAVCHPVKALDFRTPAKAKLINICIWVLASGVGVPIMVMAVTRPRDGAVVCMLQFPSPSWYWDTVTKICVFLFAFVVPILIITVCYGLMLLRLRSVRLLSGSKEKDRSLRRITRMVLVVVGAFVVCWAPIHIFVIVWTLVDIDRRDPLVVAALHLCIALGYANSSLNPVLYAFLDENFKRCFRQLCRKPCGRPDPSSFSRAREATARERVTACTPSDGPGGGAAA

[12] = molecular target: Muscarinic acetylcholine receptor M2 (Homo sapiens) (UniProt P08172); assay: Displacement of [3H]AF-DX 384 from human recombinant muscarinic 2 receptor at 10 uM measured after 60 mins by scintillation counter method relative to control
Sequence of Muscarinic acetylcholine receptor M2 (Homo sapiens) (P08172 whole entry): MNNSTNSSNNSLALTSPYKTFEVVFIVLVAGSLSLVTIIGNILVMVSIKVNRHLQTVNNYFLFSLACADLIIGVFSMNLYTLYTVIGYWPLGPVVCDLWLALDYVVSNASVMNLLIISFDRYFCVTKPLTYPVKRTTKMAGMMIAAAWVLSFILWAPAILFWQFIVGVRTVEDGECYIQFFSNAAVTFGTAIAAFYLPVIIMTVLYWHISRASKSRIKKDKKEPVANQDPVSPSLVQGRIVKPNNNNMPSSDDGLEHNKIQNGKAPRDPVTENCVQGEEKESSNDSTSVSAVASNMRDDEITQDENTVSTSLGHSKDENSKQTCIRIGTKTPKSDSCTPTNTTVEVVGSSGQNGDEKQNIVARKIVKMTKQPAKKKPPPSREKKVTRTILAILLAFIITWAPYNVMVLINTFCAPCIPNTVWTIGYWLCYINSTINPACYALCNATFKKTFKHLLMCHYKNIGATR

[13] = molecular target: Cav1.2 (L-type calcium channel subunit alpha-1C) (Rattus norvegicus, UniProt P22002); assay: Displacement of [3H] D888 from rat Cav1.2 (L-type) at 10 uM measured after 120 mins by scintillation counter method relative to control; conditions: probe [3H] D888
[14] = molecular target: Substance-K receptor (Homo sapiens) (UniProt P21452); assay: Displacement of [125I]NKA from human recombinant NK2 receptor at 10 uM measured after 60 mins by scintillation counter method relative to control
[15] = molecular target: Vasopressin V1a receptor (Homo sapiens) (UniProt P37288); assay: Displacement of [3H] AVP from human recombinant vasopressin V1A receptor at 10 uM measured after 60 mins by scintillation counter method relative to control
Sequence of Vasopressin V1a receptor (Homo sapiens) (P37288 whole entry, looked up): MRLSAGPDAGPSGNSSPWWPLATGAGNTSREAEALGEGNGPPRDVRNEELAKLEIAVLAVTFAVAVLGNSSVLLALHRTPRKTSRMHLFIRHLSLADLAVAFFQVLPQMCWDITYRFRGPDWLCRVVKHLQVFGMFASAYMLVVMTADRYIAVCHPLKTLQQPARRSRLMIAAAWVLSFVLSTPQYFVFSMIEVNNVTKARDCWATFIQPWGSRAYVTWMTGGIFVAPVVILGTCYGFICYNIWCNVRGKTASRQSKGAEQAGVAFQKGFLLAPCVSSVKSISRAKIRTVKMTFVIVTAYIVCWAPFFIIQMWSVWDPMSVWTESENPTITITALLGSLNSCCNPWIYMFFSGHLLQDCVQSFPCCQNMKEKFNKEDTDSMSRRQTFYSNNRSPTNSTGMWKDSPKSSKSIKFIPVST

[16] = molecular target: Sodium-dependent serotonin transporter (Homo sapiens, UniProt P31645); assay: Displacement of [3H] imipramine from human recombinant 5-HT transporter at 10 uM measured after 60 mins by scintillation counter method relative to control
[17] = molecular target: Vasoactive intestinal polypeptide receptor 1 (Homo sapiens) (UniProt P32241); assay: Displacement of [125I] VIP from human recombinant VPAC1 receptor at 10 uM measured after 60 mins by scintillation counter method relative to control
Sequence of Vasoactive intestinal polypeptide receptor 1 (Homo sapiens) (P32241 whole entry): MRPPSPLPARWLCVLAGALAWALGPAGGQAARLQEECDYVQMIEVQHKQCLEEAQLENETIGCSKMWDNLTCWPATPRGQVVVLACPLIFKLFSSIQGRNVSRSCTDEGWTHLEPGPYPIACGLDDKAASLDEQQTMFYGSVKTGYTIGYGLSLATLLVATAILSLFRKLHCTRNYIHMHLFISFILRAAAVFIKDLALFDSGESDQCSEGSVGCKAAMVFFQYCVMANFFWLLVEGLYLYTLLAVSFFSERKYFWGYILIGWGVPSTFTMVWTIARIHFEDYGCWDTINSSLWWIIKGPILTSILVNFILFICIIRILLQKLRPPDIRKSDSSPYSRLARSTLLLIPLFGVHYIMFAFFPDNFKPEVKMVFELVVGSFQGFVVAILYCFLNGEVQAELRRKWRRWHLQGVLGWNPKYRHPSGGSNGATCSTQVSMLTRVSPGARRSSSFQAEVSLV

[18] = molecular target: D(2) dopamine receptor (Homo sapiens) (UniProt P14416); assay: Displacement of [3H]methyl-spiperone from human recombinant D2S receptor at 10 uM measured after 60 mins by scintillation counter method relative to control
Sequence of D(2) dopamine receptor (Homo sapiens) (P14416 whole entry): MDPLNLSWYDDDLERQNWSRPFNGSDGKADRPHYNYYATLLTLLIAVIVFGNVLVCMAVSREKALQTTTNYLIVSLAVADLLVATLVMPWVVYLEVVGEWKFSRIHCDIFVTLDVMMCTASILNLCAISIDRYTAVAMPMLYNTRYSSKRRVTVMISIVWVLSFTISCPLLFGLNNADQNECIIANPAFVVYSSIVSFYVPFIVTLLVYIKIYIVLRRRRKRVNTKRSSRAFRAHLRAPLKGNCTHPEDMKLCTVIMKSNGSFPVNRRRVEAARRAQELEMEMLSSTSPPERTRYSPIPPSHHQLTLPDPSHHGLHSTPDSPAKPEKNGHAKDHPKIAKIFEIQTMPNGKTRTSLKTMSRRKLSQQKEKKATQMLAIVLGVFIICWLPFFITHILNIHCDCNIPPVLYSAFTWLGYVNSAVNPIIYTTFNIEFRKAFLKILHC

[19] = molecular target: Cannabinoid receptor 1 (Homo sapiens) (UniProt P21554); assay: Displacement of [3H]CP 55940 from human recombinant CB1 receptor at 10 uM measured after 120 mins by scintillation counter method relative to control
Sequence of Cannabinoid receptor 1 (Homo sapiens) (P21554 whole entry): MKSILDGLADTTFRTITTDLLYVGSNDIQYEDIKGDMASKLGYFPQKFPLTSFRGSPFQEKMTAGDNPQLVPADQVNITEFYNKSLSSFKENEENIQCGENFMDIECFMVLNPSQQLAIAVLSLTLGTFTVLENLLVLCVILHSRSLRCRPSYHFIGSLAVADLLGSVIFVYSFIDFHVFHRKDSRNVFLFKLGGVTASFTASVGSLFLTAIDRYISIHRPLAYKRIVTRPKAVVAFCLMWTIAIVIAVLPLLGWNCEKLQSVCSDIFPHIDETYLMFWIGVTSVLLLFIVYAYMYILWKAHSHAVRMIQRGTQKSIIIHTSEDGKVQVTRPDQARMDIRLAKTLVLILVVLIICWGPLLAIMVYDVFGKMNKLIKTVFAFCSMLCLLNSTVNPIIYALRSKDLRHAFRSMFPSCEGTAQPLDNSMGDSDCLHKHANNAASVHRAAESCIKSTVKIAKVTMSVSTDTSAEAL

Substance-K receptor = molecular target: T2, Substance-K receptor (Homo sapiens, UniProt P21452); assay: Displacement of [125I]NKA from human recombinant NK2 receptor measured after 60 mins by scintillation counter method
T2 sequence (P21452 whole entry): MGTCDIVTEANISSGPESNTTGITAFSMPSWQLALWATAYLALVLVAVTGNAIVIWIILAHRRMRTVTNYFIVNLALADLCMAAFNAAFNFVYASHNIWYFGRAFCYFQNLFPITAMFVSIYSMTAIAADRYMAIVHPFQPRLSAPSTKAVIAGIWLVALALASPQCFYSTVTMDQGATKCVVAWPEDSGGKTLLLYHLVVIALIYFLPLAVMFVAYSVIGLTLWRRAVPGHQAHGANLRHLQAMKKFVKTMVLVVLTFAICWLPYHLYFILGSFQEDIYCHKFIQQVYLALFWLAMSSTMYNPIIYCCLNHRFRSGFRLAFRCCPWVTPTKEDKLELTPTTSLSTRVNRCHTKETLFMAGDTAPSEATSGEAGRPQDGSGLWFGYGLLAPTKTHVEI

[20] = molecular target: 5-hydroxytryptamine receptor 2A (Homo sapiens, UniProt P28223); assay: Displacement of [3H] ketanserin from human recombinant 5-HT2A receptor at 10 uM measured after 60 mins by scintillation counter method relative to control
Sequence of 5-hydroxytryptamine receptor 2A (P28223 whole entry): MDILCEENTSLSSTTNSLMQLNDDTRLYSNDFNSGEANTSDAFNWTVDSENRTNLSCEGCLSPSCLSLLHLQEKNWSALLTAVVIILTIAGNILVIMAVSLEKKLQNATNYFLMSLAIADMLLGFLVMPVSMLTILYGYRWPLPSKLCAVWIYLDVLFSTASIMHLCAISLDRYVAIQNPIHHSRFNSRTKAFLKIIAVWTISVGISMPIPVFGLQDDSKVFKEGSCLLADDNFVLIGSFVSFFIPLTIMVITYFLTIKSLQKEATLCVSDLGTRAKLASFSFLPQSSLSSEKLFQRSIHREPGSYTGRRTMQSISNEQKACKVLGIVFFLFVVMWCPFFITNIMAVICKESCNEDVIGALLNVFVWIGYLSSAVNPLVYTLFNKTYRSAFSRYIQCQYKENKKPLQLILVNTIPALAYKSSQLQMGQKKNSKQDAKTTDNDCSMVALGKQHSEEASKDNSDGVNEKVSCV

Sequence of D(1A) dopamine receptor (Homo sapiens) (P21728 whole entry): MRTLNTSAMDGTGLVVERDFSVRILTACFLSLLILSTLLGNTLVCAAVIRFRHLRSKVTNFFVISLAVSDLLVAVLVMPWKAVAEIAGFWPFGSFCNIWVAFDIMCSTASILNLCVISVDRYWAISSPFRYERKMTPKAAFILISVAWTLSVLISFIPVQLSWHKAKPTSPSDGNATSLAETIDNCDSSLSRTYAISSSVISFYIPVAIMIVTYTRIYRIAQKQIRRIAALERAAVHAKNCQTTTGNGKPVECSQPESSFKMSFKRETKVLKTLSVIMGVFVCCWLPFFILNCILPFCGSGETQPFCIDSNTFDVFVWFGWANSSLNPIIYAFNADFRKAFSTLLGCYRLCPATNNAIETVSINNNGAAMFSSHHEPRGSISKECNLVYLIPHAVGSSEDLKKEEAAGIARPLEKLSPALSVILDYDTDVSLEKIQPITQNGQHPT
Sequence of B2 bradykinin receptor (Homo sapiens) (P30411 whole entry): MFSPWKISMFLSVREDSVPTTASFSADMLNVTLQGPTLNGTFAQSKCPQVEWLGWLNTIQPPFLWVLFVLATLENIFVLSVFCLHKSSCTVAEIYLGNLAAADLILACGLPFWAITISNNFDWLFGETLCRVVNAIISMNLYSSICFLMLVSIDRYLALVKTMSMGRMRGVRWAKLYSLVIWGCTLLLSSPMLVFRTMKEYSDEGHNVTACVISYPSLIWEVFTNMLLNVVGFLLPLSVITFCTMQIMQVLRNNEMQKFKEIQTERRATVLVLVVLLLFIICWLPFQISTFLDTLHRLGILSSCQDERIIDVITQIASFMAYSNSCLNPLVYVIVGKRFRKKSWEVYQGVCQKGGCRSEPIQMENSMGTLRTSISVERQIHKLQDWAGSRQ

CC(C)CCO[C@@H]1[C@H]2OC(C)(C)O[C@H]2[C@H]2Cn3cc(nn3)COCCCCCCN(CCc3ccc4ccccc4c3)CC[C@H]1O2
Activity [1]: 9.4% | inhibition [2]: 21.5% | inhibition [3]: 35.2% | Activity [4]: 5.1% | Activity (Rattus norvegicus): 3.7% | Activity [5]: 3.3% | inhibition [6]: 48.3% | IC50 [7]: 0.49 µM | Ki [7]: 0.31 µM | inhibition [8]: 90.2% | inhibition [9]: 60.5% | inhibition [10]: 64.1% | inhibition [11]: 83.4% | inhibition [12]: 36.2% | inhibition at 2 h, 10 µM [13]: 90.5% | inhibition [14]: 98.2% | inhibition [15]: 19% | inhibition [16]: 68.3% | Activity [17]: 14.8% | inhibition [18]: 59.6% | inhibition [19]: 33.8% | IC50 (Substance-K receptor): 0.26 µM | Ki (Substance-K receptor): 0.14 µM | inhibition [20]: 93.2%
